According to patent US20220023293A1, “EZH2- FGFR INHIBITION IN CANCER” (Stichting Het Nederlands Kanker Instituut-Antoni van …, priority 2018, published 2022):

Columns and labels:
[1] = test system: BAP1 deficient mesothelioma cells; test: short term assay, drug response curve (Alamar blue), 384-well; type: cell-based, mouse; settings: single agent; BNC versus NC derived early passage cell lines; FIG. 4B, 4C
Description: For short term colony formation assay, the mesothelioma cell lines were seeded in 500 cells per well in a 384-well plate. The next day drugs (GSK126, AZD4547, AZD2461, ABT-263) were added in a matrix format at the indicated concentration using HP D300 digital dispenser (HP) and cells were grown in presence of drug(s) or DMSO control for 5 days. Thereafter, 10% v/v Alamar blue was added to the well and incubated at 370 C for 4 hours. The plates were read with Tecan reader. The data were analyzed and plotted for drug response curve.

FGF7, FGF2 and FGFR2 = test: gene expression analysis (RNA sequencing) after EZH2 inhibitor treatment; type: cell-based, mouse; settings: GSK126 treated versus DMSO treated Bap1 deficient cells; log 2 expression; FIG. 4E
Description: For gene expression analysis, RNA was isolated from tumor tissue with the Qiagen All prep DNA/RNA kit. Quantification and quality assessment for RNA were performed with a Bioanalyzer (RIN >6.5) (Agilent, Santa Clara, Calif., USA).
Sequencing libraries were constructed with a TruSeq mRNA Library Preparation Kit using poly-A-enriched RNA (Illumina, San Diego, Calif., USA). The samples were run on a HiSeq 2500 Illumina sequencer for cluster generation and sequencing.
For RNA sequencing and expression analysis, Illumina TruSeq mRNA libraries were sequenced with 51 base single reads on a HiSeq2000 using V3 chemistry (Illumina Inc., San Diego). The sequence reads were mapped to the mouse genome (mm10), using TopHat (2.0.12). TopHat was run with default. Reads with mapping quality less than 10 and non-primary alignments were discarded. Remaining reads were counted using HTSeq-cout. Statistical analysis of the differential expression of genes was performed using DESeq2. Genes with False Discovery Rate (FDR) for differential expression lower than 0.05 were considered significant. Batch effect within tumor samples from different source was corrected using ComBat with default options through the Bioconductor sva package 3.10.

COc1cc(CCc2cc(NC(=O)c3ccc(N4C[C@@H](C)N[C@@H](C)C4)cc3)n[nH]2)cc(OC)c1 [AZD4547, N-[5-[2-(3,5-dimethoxyphenyl)ethyl]-1H-pyrazol-3-yl]-4-[(3R,5S)-3,5-dimethylpiperazin-1-yl]benzamide]
drug response of BAP1 deficient versus proficient mesothelioma cells (dose response curve) [1]: hypersensitive

CC[C@H](C)n1cc(C)c2c(C(=O)NCc3c(C)cc(C)[nH]c3=O)cc(-c3ccc(N4CCNCC4)nc3)cc21 [GSK126, 1-[(2S)-butan-2-yl]-N-[(4,6-dimethyl-2-oxo-1H-pyridin-3-yl)methyl]-3-methyl-6-(6-piperazin-1-ylpyridin-3-yl)indole-4-carboxamide]
expression of FGF/FGFR pathway genes (FGF7, FGF2, FGFR2) (FGF7, FGF2 and FGFR2): upregulation of FGF/FGFR pathway genes
drug response of BAP1 deficient versus proficient mesothelioma cells (dose response curve) [1]: hypersensitive
